Numbered stars: 1 amine (or outer) side, 2 acyl side, 3 side chain; on linkers, the order of the positions; unused ones are H or OH. Square brackets hold non-standard residues; d marks the D form. Side chains are listed from the residue outwards. Peptide text beside a SMILES is read from it. * marks the point of attachment. C20 diacid = O=C(O)CCCCCCCCCCCCCCCCCCC(=O)*; γGlu = O=C(O)[C@H](CCC(=O)[*:2])N[*:1]; AEEA = NCCOCCOCC(=O)O; Aib = CC(C)(N)C(=O)O
Key:
human GLP-1R = human GLP-1R (Homo sapiens, UniProt P43220); assay: [125I]-GLP-1 binding (SPA), human GLP-1 receptor; set-up: expressed in transfected cells; crude membranes; settings: read-out: hGLP1R Ki, (nM) (SEM, n)
Chain of human GLP-1R (P43220 24-463): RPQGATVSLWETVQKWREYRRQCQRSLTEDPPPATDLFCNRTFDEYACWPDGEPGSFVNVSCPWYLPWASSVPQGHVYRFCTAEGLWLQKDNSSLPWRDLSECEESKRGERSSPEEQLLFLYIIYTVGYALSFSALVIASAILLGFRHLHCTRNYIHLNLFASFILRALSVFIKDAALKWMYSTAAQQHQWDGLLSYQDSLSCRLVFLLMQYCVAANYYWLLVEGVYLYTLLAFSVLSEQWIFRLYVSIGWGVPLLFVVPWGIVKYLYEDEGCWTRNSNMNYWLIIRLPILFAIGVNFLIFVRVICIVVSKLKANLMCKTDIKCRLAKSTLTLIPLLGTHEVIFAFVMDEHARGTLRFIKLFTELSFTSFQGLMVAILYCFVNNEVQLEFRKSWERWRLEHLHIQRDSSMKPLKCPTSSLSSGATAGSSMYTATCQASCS
Method in brief: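 Frozen cell pellets are lysed on ice in hypotonic Tris buffer, pH 7.5, homogenized, and centrifuged to a membrane pellet resuspended at about 1 to 3 mg/mL. Binding is then measured in HEPES-based buffer at pH 7.4, and curves are fitted to give IC50 and Ki.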

human GIP receptor = biological target: T1, human GIP receptor (Homo sapiens, UniProt P48546); assay: [125I]-GIP binding (SPA), human GIP receptor; settings: read-out: hGIPR Ki, nM (SEM, n)
T1 construct: expressed in transfected cells; crude membranes
T1 sequence (P48546 22-466): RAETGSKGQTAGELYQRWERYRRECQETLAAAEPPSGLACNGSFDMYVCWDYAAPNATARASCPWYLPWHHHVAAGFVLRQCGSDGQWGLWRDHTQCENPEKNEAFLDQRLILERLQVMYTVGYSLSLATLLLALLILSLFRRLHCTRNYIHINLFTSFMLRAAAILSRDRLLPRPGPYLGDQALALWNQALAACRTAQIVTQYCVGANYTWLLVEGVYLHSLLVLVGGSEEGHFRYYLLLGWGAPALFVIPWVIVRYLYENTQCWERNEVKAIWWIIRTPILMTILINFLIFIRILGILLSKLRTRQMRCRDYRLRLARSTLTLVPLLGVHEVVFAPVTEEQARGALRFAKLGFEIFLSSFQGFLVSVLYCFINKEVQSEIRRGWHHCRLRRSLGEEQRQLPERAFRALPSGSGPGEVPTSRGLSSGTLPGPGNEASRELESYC

[1] = biological target: human GLP-1 receptor (GLP-1R) (Homo sapiens, UniProt P43220); assay: cAMP pharmacological functional assay in presence of casein, hGLP-1R; type: cell-based; settings: HEK293 cells expressing hGLP-1R, 0.1% Casein, geometric mean; read-out: hGLP1R cAMP Rel EC50 nM (SEM, n)
Chain of human GLP-1 receptor (GLP-1R) (P43220 24-463): as the sequence (P43220 24-463) above

[2] = biological target: T2, gastric inhibitory peptide receptor (GIPR) (Homo sapiens, UniProt P48546); assay: cAMP pharmacological functional assay in presence of casein, hGIPR; type: cell-based; settings: HEK293 cells expressing hGIPR, 0.1% Casein, geometric mean; read-out: hGIPR cAMP Rel EC50 nM (SEM, n)
T2 sequence (P48546 22-466): T1 sequence (P48546 22-466)

human Gcg receptor = biological target: T3, human Gcg receptor (Homo sapiens, UniProt P47871); assay: [125I]-Glucagon binding (SPA), human Gcg receptor; settings: read-out: hGLcgR Ki, nM (SEM, n)
T3 construct: expressed in transfected cells; crude membranes
T3 sequence (P47871 26-477): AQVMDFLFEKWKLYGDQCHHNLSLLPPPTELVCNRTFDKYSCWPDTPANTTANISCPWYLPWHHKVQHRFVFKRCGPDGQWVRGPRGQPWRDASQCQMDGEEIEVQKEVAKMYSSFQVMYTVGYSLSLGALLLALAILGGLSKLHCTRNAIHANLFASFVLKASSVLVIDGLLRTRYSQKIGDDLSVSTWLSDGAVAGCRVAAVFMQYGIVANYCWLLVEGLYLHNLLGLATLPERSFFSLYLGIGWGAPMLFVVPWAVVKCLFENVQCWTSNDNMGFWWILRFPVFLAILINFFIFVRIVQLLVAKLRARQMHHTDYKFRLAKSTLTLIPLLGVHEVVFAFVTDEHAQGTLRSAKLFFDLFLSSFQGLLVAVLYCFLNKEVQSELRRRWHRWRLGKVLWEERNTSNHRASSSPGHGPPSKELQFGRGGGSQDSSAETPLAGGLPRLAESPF
Method in brief: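 Crude membranes from cells expressing the receptor, prepared by hypotonic lysis in 50 mM Tris HCl pH 7.5 with protease inhibitors, homogenization and differential centrifugation, were used in a WGA-bead SPA. Binding buffer: 25 mM HEPES pH 7.4, 2.5 mM CaCl2, 1 mM MgCl2, bacitracin, Tween-20.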

| SMILES | Ki (human GLP-1R) [nM] | Ki (human GIP receptor) [nM] | EC50 [1] [nM] | EC50 [2] [nM] | Ki (human Gcg receptor) [nM] |
| --- | --- | --- | --- | --- | --- |
| CC[C@H](C)[C@H](NC(=O)[C@H](CCCCN)NC(=O)[C@H](CC(=O)O)NC(=O)[C@H](CC(C)C)NC(=O)[C@H](CC(C)C)NC(=O)[C@@H](NC(=O)[C@H](CO)NC(=O)[C@H](Cc1ccc(O)cc1)NC(=O)[C@H](CC(=O)O)NC(=O)[C@H](CO)NC(=O)[C@@H](NC(=O)[C@H](Cc1ccccc1)NC(=O)[C@@H](NC(=O)CNC(=O)[C@H](CCC(=O)O)NC(=O)C(C)(C)NC(=O)[C@@H](N)Cc1ccc(O)cc1)[C@@H](C)O)[C@@H](C)O)[C@@H](C)CC)C(=O)N[C@@H](C)C(=O)N[C@@H](CCC(N)=O)C(=O)NC(C)(C)C(=O)N[C@@H](C)C(=O)N[C@@H](Cc1ccccc1)C(=O)N[C@@H](CCCCNC(=O)COCCOCCNC(=O)COCCOCCNC(=O)CC[C@H](NC(=O)CCCCCCCCCCCCCCCCCCC(=O)O)C(=O)O)C(=O)N[C@@H](CCC(=O)O)C(=O)N[C@@H](Cc1ccc(O)cc1)C(=O)N[C@@H](CC(C)C)C(=O)N[C@H](C(=O)N[C@@H](CCC(=O)O)C(=O)NCC(=O)NCC(=O)N1CCC[C@H]1C(=O)N[C@@H](CO)C(=O)N[C@@H](CO)C(=O)NCC(=O)N[C@@H](C)C(=O)N1CCC[C@H]1C(=O)N1CCC[C@H]1C(=O)N1CCC[C@H]1C(=O)N[C@@H](CO)C(N)=O)[C@@H](C)CC [Example 33] (H-Y[Aib]EGTFTSDYSILLDKIAQ[Aib]AFK([AEEA-AEEA-γGlu-C20 diacid])EYLIEGGPSSGAPPPS-NH2; N-terminus assumed) | 361 | 6.4 | 251 | 63.3 | > 979 |
| CC[C@H](C)[C@H](NC(=O)[C@H](CCCCN)NC(=O)[C@H](CC(=O)O)NC(=O)[C@H](CC(C)C)NC(=O)[C@H](CC(C)C)NC(=O)[C@@H](NC(=O)[C@H](CO)NC(=O)[C@H](Cc1ccc(O)cc1)NC(=O)[C@H](CC(=O)O)NC(=O)[C@H](CO)NC(=O)[C@@H](NC(=O)[C@H](Cc1ccccc1)NC(=O)[C@@H](NC(=O)CNC(=O)[C@H](CCC(=O)O)NC(=O)C(C)(C)NC(=O)[C@@H](N)Cc1ccc(O)cc1)[C@@H](C)O)[C@@H](C)O)[C@@H](C)CC)C(=O)N[C@@H](C)C(=O)N[C@@H](CCC(N)=O)C(=O)NC(C)(C)C(=O)N[C@@H](C)C(=O)N[C@@H](Cc1ccccc1)C(=O)N[C@H](C(=O)N[C@@H](CCCCNC(=O)COCCOCCNC(=O)COCCOCCNC(=O)CC[C@H](NC(=O)CCCCCCCCCCCCCCCCCCC(=O)O)C(=O)O)C(=O)N[C@@H](Cc1ccc(O)cc1)C(=O)N[C@@H](CC(C)C)C(=O)N[C@H](C(=O)N[C@@H](CCC(=O)O)C(=O)NCC(=O)NCC(=O)N1CCC[C@H]1C(=O)N[C@@H](CO)C(=O)N[C@@H](CO)C(=O)NCC(=O)N[C@@H](C)C(=O)N1CCC[C@H]1C(=O)N1CCC[C@H]1C(=O)N1CCC[C@H]1C(=O)N[C@@H](CO)C(N)=O)[C@@H](C)CC)[C@@H](C)CC [Example 34] (H-Y[Aib]EGTFTSDYSILLDKIAQ[Aib]AFIK([AEEA-AEEA-γGlu-C20 diacid])YLIEGGPSSGAPPPS-NH2) | 3.41 | 0.0467 | 1.56 | 0.36 | 134 |
| CC[C@H](C)[C@H](NC(=O)[C@H](CCCCN)NC(=O)[C@H](CC(=O)O)NC(=O)[C@H](CC(C)C)NC(=O)[C@H](CC(C)C)NC(=O)[C@@H](NC(=O)[C@H](CO)NC(=O)[C@H](Cc1ccc(O)cc1)NC(=O)[C@H](CC(=O)O)NC(=O)[C@H](CO)NC(=O)[C@@H](NC(=O)[C@H](Cc1ccccc1)NC(=O)[C@@H](NC(=O)CNC(=O)[C@H](CCC(=O)O)NC(=O)C(C)(C)NC(=O)[C@@H](N)Cc1ccc(O)cc1)[C@@H](C)O)[C@@H](C)O)[C@@H](C)CC)C(=O)N[C@@H](C)C(=O)N[C@@H](CCC(N)=O)C(=O)NC(C)(C)C(=O)N[C@@H](C)C(=O)N[C@@H](Cc1ccccc1)C(=O)N[C@H](C(=O)N[C@@H](CCC(=O)O)C(=O)N[C@@H](Cc1ccc(O)cc1)C(=O)N[C@@H](CCCCNC(=O)COCCOCCNC(=O)COCCOCCNC(=O)CC[C@H](NC(=O)CCCCCCCCCCCCCCCCCCC(=O)O)C(=O)O)C(=O)N[C@H](C(=O)N[C@@H](CCC(=O)O)C(=O)NCC(=O)NCC(=O)N1CCC[C@H]1C(=O)N[C@@H](CO)C(=O)N[C@@H](CO)C(=O)NCC(=O)N[C@@H](C)C(=O)N1CCC[C@H]1C(=O)N1CCC[C@H]1C(=O)N1CCC[C@H]1C(=O)N[C@@H](CO)C(N)=O)[C@@H](C)CC)[C@@H](C)CC [Example 35] (H-Y[Aib]EGTFTSDYSILLDKIAQ[Aib]AFIEYK([AEEA-AEEA-γGlu-C20 diacid])IEGGPSSGAPPPS-NH2) | 54.6 | 0.0358 | 8.38 | 0.0905 | > 964 |
| CC[C@H](C)[C@H](NC(=O)[C@H](CCCCN)NC(=O)[C@H](CC(=O)O)NC(=O)[C@H](CC(C)C)NC(=O)[C@H](CC(C)C)NC(=O)[C@@H](NC(=O)[C@H](CO)NC(=O)[C@H](Cc1ccc(O)cc1)NC(=O)[C@H](CC(=O)O)NC(=O)[C@H](CO)NC(=O)[C@@H](NC(=O)[C@H](Cc1ccccc1)NC(=O)[C@@H](NC(=O)CNC(=O)[C@H](CCC(=O)O)NC(=O)C(C)(C)NC(=O)[C@@H](N)Cc1ccc(O)cc1)[C@@H](C)O)[C@@H](C)O)[C@@H](C)CC)C(=O)N[C@@H](C)C(=O)N[C@@H](CCC(N)=O)C(=O)NC(C)(C)C(=O)N[C@@H](C)C(=O)N[C@@H](Cc1ccccc1)C(=O)N[C@H](C(=O)N[C@@H](CCC(=O)O)C(=O)N[C@@H](Cc1ccc(O)cc1)C(=O)N[C@@H](CC(C)C)C(=O)N[C@@H](CCCCNC(=O)COCCOCCNC(=O)COCCOCCNC(=O)CC[C@H](NC(=O)CCCCCCCCCCCCCCCCCCC(=O)O)C(=O)O)C(=O)N[C@@H](CCC(=O)O)C(=O)NCC(=O)NCC(=O)N1CCC[C@H]1C(=O)N[C@@H](CO)C(=O)N[C@@H](CO)C(=O)NCC(=O)N[C@@H](C)C(=O)N1CCC[C@H]1C(=O)N1CCC[C@H]1C(=O)N1CCC[C@H]1C(=O)N[C@@H](CO)C(N)=O)[C@@H](C)CC [Example 36] (H-Y[Aib]EGTFTSDYSILLDKIAQ[Aib]AFIEYLK([AEEA-AEEA-γGlu-C20 diacid])EGGPSSGAPPPS-NH2) | 16.4 | 0.141 | 2.29 | 0.309 | 413 |
| CC[C@H](C)[C@H](NC(=O)[C@H](CCCCN)NC(=O)[C@H](CC(=O)O)NC(=O)[C@H](CC(C)C)NC(=O)[C@H](CC(C)C)NC(=O)[C@@H](NC(=O)[C@H](CO)NC(=O)[C@H](Cc1ccc(O)cc1)NC(=O)[C@H](CC(=O)O)NC(=O)[C@H](CO)NC(=O)[C@@H](NC(=O)[C@H](Cc1ccccc1)NC(=O)[C@@H](NC(=O)CNC(=O)[C@H](CCC(=O)O)NC(=O)C(C)(C)NC(=O)[C@@H](N)Cc1ccc(O)cc1)[C@@H](C)O)[C@@H](C)O)[C@@H](C)CC)C(=O)N[C@@H](C)C(=O)N[C@@H](CCC(N)=O)C(=O)NC(C)(C)C(=O)N[C@@H](C)C(=O)N[C@@H](Cc1ccccc1)C(=O)N[C@H](C(=O)N[C@@H](CCC(=O)O)C(=O)N[C@@H](Cc1ccc(O)cc1)C(=O)N[C@@H](CC(C)C)C(=O)N[C@H](C(=O)N[C@@H](CCCCNC(=O)COCCOCCNC(=O)COCCOCCNC(=O)CC[C@H](NC(=O)CCCCCCCCCCCCCCCCCCC(=O)O)C(=O)O)C(=O)NCC(=O)NCC(=O)N1CCC[C@H]1C(=O)N[C@@H](CO)C(=O)N[C@@H](CO)C(=O)NCC(=O)N[C@@H](C)C(=O)N1CCC[C@H]1C(=O)N1CCC[C@H]1C(=O)N1CCC[C@H]1C(=O)N[C@@H](CO)C(N)=O)[C@@H](C)CC)[C@@H](C)CC [Example 37] (H-Y[Aib]EGTFTSDYSILLDKIAQ[Aib]AFIEYLIK([AEEA-AEEA-γGlu-C20 diacid])GGPSSGAPPPS-NH2) | 3.84 | 0.0523 | 1.15 | 0.269 | 255 |
